Experimental data from patent US20230087118A1, “IMIDAZO[1,2-a][sequence] DERIVATIVES AND THEIR USE IN THE TREATMENT OF DISEASE” (priority 2019, published 2023).
Counter-ions that a name gives are not always drawn. Like-named read-outs stand apart in the source and are kept apart here.

Biological target: T1, IRAK4 (Homo sapiens, UniProt Q9NWZ3)
T1 sequence (Q9NWZ3 1-460): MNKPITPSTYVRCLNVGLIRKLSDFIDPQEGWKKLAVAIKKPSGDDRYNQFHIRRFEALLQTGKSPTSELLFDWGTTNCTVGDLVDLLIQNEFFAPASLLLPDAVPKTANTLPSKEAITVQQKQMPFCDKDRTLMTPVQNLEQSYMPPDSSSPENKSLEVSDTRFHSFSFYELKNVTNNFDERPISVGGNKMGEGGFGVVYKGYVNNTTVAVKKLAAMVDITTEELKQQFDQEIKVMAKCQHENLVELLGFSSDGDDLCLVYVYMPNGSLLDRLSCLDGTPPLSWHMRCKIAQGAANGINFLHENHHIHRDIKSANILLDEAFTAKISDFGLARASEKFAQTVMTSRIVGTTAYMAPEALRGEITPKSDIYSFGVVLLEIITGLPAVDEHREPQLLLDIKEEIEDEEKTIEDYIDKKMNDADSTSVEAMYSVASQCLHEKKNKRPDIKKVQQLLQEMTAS
Assay: biochemical

[1] = IRAK4 Biochemical Assay (1 mM ATP, 2 h) IC50 (μM), 1 mM ATP, 2 h, 100 pM IRAK4

`CC(C)Oc1nc2nc(C34COC(C)(C3)C4)cn2cc1C(=O)Nc1cccc2c1ncn2C` [Example 379, 7-Isopropoxy-N-(1-methyl-1H-benzo[d]imidazol-4-yl)-2-(1-methyl-2-oxabicyclo[2.1.1]hexan-4-yl)imidazo[1,2-a]pyrimidine-6-carboxamide trifluoroacetate] showed an IC50 [1] of 0.001 µM.

`CCOc1nc(C(=O)Nc2ccn(CC)n2)cn2cc(C34COC(C)(C3)C4)nc12` [Example 501, 8-Ethoxy-N-(1-ethyl-1H-pyrazol-3-yl)-2-(1-methyl-2-oxabicyclo[2.1.1]hexan-4-yl)imidazo[1,2-a]pyrazine-6-carboxamide] showed an IC50 of 0.0069 µM.

`Cn1cccc(NC(=O)c2cn3cc(C45COC(C)(C4)C5)nc3cc2OC2CCC2)c1=O` [Example 424, 7-Cyclobutoxy-N-(1-methyl-2-oxo-1,2-dihydropyridin-3-yl)-2-(1-methyl-2-oxabicyclo[2.1.1]hexan-4-yl)imidazo[1,2-a]pyridine-6-carboxamide] showed an IC50 of 0.0007 µM.

Molecule `CCOc1nc(C(=O)Nc2cccc3ccnn23)cn2cc(C34CCC(C)(C3)OC4)nc12` (centres unmarked) [Example 278, 8-Ethoxy-2-(1-methyl-2-oxabicyclo[2.2.1]heptan-4-yl)-N-(pyrazolo[1,5-a]pyridin-7-yl)imidazo[1,2-a]pyrazine-6-carboxamide trifluoroacetate] has an IC50 [1] of 0.0011 µM.

`CCOc1nc(C(=O)Nc2cccc(OC)n2)cn2cc(C34COC(C)(C3)C4)nc12` [Example 486, 8-Ethoxy-N-(6-methoxypyridin-2-yl)-2-(1-methyl-2-oxabicyclo[2.1.1]hexan-4-yl)imidazo[1,2-a]pyrazine-6-carboxamide] was tested, and the IC50 was 0.0075 µM.

With `COc1cccc(NC(=O)c2cn3cc(C45CC(C)(C4)OC54COC4)nc3cc2OC)n1` [Example 28] the IC50 [1] was 0.0969 µM.

With `CC(C)Oc1nc2nc(C34COC(C)(C3)C4)cn2cc1C(=O)Nc1cccc(F)c1Cl` [Example 399, N-(2-chloro-3-fluorophenyl)-7-isopropoxy-2-(1-methyl-2-oxabicyclo[2.1.1]hexan-4-yl)imidazo[1,2-a]pyrimidine-6-carboxamide] the IC50 was 0.003 µM.

With `CC(C)Oc1cc2nc([C@@]34CC[C@@](C)(C3)OC4)cn2cc1C(=O)Nc1cnn2cccnc12` (single isomer, unassigned) [Example 615] the IC50 was 0.0002 µM.

Work on `COc1ccn2ncc(NC(=O)c3cn4cc(C56COC(C)(C5)C6)nc4cc3OC(C)C)c2n1` [Example 300, 7-Isopropoxy-N-(5-methoxypyrazolo[1,5-a]pyrimidin-3-yl)-2-(1-methyl-2-oxabicyclo[2.1.1]hexan-4-yl)imidazo[1,2-a]pyridine-6-carboxamide] yielded an IC50 of 0.0022 µM.

`COc1ncccc1NC(=O)c1cn2cc(C34COC(C)(C3)C4)nc2cc1OC1CCC1` [Example 526, 7-Cyclobutoxy-N-(2-methoxypyridin-3-yl)-2-(1-methyl-2-oxa-bicyclo[2.1.1]hexan-4-yl)imidazo[1,2-a]pyridine-6-carboxamide] gave an IC50 of 0.0003 µM.

`CC(C)Oc1ncccc1NC(=O)c1cn2cc(C34CCC(C)(C3)OC4)nc2cc1OC1CCC1` (centres unmarked) [Example 539, 7-Cyclobutoxy-N-(2-isopropoxypyridin-3-yl)-2-(1-methyl-2-oxabicyclo[2.2.1]heptan-4-yl)imidazo[1,2-a]pyridine-6-carboxamide] was tested, and the IC50 was 0.0229 µM.

In the case of `COc1cccc(NC(=O)c2cn3cc(C4C5CCOCC54)nc3cc2OC)n1` (centres unmarked) [Example 25], the IC50 [1] is reported as 0.0031 µM.

For `Cn1ccc(NC(=O)c2cn3cc(C45CCC(C)(C4)OC5)nc3cc2OC2CC2)n1` (centres unmarked) [Example 552], the IC50 was 0.0097 µM.

`O=C(Nc1cccc(C(F)F)n1)c1cn2cc(C3CC3)nc2cc1OC1CC(C(F)F)C1` (centres unmarked) [Example 477, 2-Cyclopropyl-7-(3-(difluoromethyl)cyclobutoxy)-N-(6-(difluoromethyl)pyridin-2-yl)imidazo[1,2-a]pyridine-6-carboxamide] showed an IC50 [1] of 0.0011 µM.

Molecule `CCOc1cccc(NC(=O)c2cn3cc(C4CC4)nc3cc2OC(C)C)n1` [Example 481, 2-Cyclopropyl-N-(6-ethoxypyridin-2-yl)-7-isopropoxyimidazo[1,2-a]pyridine-6-carboxamide] has an IC50 of 0.0089 µM.

In the case of `CC12CCC(c3cn4cc(C(=O)Nc5cnn6cccnc56)c(OC5CCC5)cc4n3)(CO1)C2` (centres unmarked) [Example 425, 7-Cyclobutoxy-2-(1-methyl-2-oxabicyclo[2.2.1]heptan-4-yl)-N-(pyrazolo[1,5-a]pyrimidin-3-yl)imidazo[1,2-a]pyridine-6-carboxamide], the IC50 is reported as 0.0004 µM.

`CC(C)Oc1cc2nc([C@@]34CC[C@@](C)(C3)OC4)cn2cc1C(=O)Nc1cccn(C(F)F)c1=O` (single isomer, unassigned) [Example 624] gave an IC50 of 0.0002 µM.

For `CC(C)Oc1nc2nc(C34COC(C)(C3)C4)cn2cc1C(=O)Nc1ccccn1` [Example 354, 7-Isopropoxy-2-(1-methyl-2-oxabicyclo[2.1.1]hexan-4-yl)-N-(pyridin-2-yl)imidazo[1,2-a]pyrimidine-6-carboxamide], the IC50 was 0.0053 µM.

In the case of `CC(C)Oc1cc2nc(C34CCC(C)(C3)OC4)cn2cc1C(=O)Nc1cnn2c1OCCC2` (centres unmarked) [Example 250], the IC50 is reported as 0.0013 µM.

`CC12CCC(c3cn4cc(C(=O)Nc5cccn(C(F)F)c5=O)c(OC5CC5)cc4n3)(CO1)C2` (centres unmarked) [Example 553] was tested, and the IC50 was 0.0015 µM.

With `CCc1cccc(NC(=O)c2cn3cc(C45COC(CF)(C4)C5)nc3cc2OC)n1` [Example 58, N-(6-ethylpyridin-2-yl)-2-(1-(fluoromethyl)-2-oxabicyclo[2.1.1]hexan-4-yl)-7-methoxyimidazo[1,2-a]pyridine-6-carboxamide trifluoroacetate] the IC50 [1] was 0.0105 µM.

Work on `CC(C)Oc1cc2nc([C@@]34CC[C@@](C)(C3)OC4)cn2cc1C(=O)Nc1cc(F)n(C)n1` (single isomer, unassigned) [Example 603] yielded an IC50 of 0.0053 µM.

In the case of `CCOc1nc(C(=O)Nc2cccnc2OC)cn2cc([C@H]3CCOC3)nc12` (single isomer, unassigned) [Example 598], the IC50 is reported as 0.0041 µM.

`CC(C)Oc1nc2nc(C34COC(C)(C3)C4)cn2cc1C(=O)Nc1cccc(-c2cnco2)n1` [Example 368, 7-Isopropoxy-2-(1-methyl-2-oxabicyclo[2.1.1]hexan-4-yl)-N-(6-(oxazol-5-yl)pyridin-2-yl)imidazo[1,2-a]pyrimidine-6-carboxamide] was tested, and the IC50 was 0.0002 µM.

`CC(C)Oc1nc2nc(C34COC(C)(C3)C4)cn2cc1C(=O)Nc1cccn(C(F)F)c1=O` [Example 388, N-(1-(difluoromethyl)-2-oxo-1,2-dihydropyridin-3-yl)-7-isopropoxy-2-(1-methyl-2-oxabicyclo[2.1.1]hexan-4-yl)imidazo[1,2-a]pyrimidine-6-carboxamide] showed an IC50 of 0.0002 µM.

With `COc1ccc(Cl)cc1NC(=O)c1cn2cc(C3CCOCC3)nc2cc1OC` [Example 112] the IC50 was 0.514 µM.

For `CCOc1nc(C(=O)Nc2cccc(Cl)c2)cn2cc(C34COC(C)(C3)C4)nc12` [Example 495, N-(3-chlorophenyl)-8-ethoxy-2-(1-methyl-2-oxabicyclo[2.1.1]hexan-4-yl)imidazo[1,2-a]pyrazine-6-carboxamide], the IC50 was 0.0088 µM.

`CC(C)Oc1cc2nc(C3CC3)cn2cc1C(=O)Nc1cccc(CO)n1` [Example 483, 2-Cyclopropyl-N-(6-(hydroxymethyl)pyridin-2-yl)-7-isopropoxyimidazo[1,2-a]pyridine-6-carboxamide] was tested, and the IC50 was 0.009 µM.

Molecule `CCOc1cc2nc([C@@H]3C[C@H]3F)cn2cc1C(=O)Nc1cccc(OC)n1` (single isomer, unassigned) [Example 67] has an IC50 of 0.0397 µM.

`CC12CCC(c3cn4cc(C(=O)Nc5cccc(C(F)F)n5)cc(OC(F)F)c4n3)(CO1)C2` (centres unmarked) [Example 251] showed an IC50 of 0.0153 µM.

`CC(C)Oc1nc(C(=O)Nc2ccn(C)n2)cn2cc(C34CCC(C)(C3)OC4)nc12` (centres unmarked) [Example 240] gave an IC50 of 0.0023 µM.

For `CC(C)Oc1nc(C(=O)Nc2cccc(C(F)F)n2)cn2cc([C@@]34CC[C@@](C)(C3)OC4)nc12` (single isomer, unassigned) [Example 588], the IC50 was 0.0015 µM.

`CC(C)Oc1cc2nc([C@]34CC[C@](C)(C3)OC4)cn2cc1C(=O)Nc1cccn(C(F)F)c1=O` (single isomer, unassigned) [Example 625] gave an IC50 of 0.0003 µM.

`COCc1cc2nc(C34COC(C)(C3)C4)cn2cc1C(=O)Nc1cccn(C)c1=O` [Example 287, 7-(Methoxymethyl)-N-(1-methyl-2-oxo-1,2-dihydropyridin-3-yl)-2-(1-methyl-2-oxabicyclo[2.1.1]hexan-4-yl)imidazo[1,2-a]pyridine-6-carboxamide] showed an IC50 of 7.14 µM.

With `COc1ncccc1NC(=O)c1cn2cc([C@@]34CC[C@@](C)(C3)OC4)nc2c(OC)n1` (single isomer, unassigned) [Example 587] the IC50 was 0.0032 µM.

Work on `CC12CC(c3cn4cc(C(=O)Nc5cnn6cccnc56)nc(OC5CCC5)c4n3)(CO1)C2` [Example 349, 8-Cyclobutoxy-2-(1-methyl-2-oxabicyclo[2.1.1]hexan-4-yl)-N-(pyrazolo[1,5-a]pyrimidin-3-yl)imidazo[1,2-a]pyrazine-6-carboxamide] yielded an IC50 of 0.0053 µM.

With `CC(C)Oc1cc2nc(C34COC(C)(C3)C4)cn2cc1C(=O)Nc1cnn(C)n1` [Example 316, 7-Isopropoxy-N-(2-methyl-2H-1,2,3-triazol-4-yl)-2-(1-methyl-2-oxabicyclo[2.1.1]hexan-4-yl)imidazo[1,2-a]pyridine-6-carboxamide trifluoroacetate] the IC50 [1] was 0.005 µM.

For `CC(C)Oc1cc2nc(C34CCC(C)(C3)OC4)cn2cc1C(=O)Nc1cccc(C(F)F)c1` (centres unmarked) [Example 514, N-(3-(difluoromethyl)phenyl)-7-isopropoxy-2-(1-methyl-2-oxabicyclo[2.2.1]heptan-4-yl)imidazo[1,2-a]pyridine-6-carboxamide], the IC50 was 0.0005 µM.
